The target in this assay is STING (Homo sapiens, UniProt Q86WV6, G230A/H232R/R293Q/R71H). The assay can be described thus: STING reporter assay in THP1-Dual KO-IFNAR2 cells (2′3′cGAMP stimulation, luciferase reporter). It is filed as cell-based. Particulars: 15 μM 2′3′cGAMP stimulation, 24 h, read-out: Pharmaron, THP1_IFNAR2 STING 24 h Luci Normalized: GeoMean EC50. A digest of the protocol: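 EC50 from secreted luciferase (QUANTI-Luc Plus luminescence of supernatant) after 24 h at 37 °C, 5% CO2. Cells: THP1-Dual KO-IFNAR2, treated with compound (0.0017-100 μM final) plus lipofected 2′3′cGAMP at 15 μM final.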

Molecules are shown by their SMILES.

Sequence of STING (Q86WV6 whole entry R71H/G230A/H232R/R293Q): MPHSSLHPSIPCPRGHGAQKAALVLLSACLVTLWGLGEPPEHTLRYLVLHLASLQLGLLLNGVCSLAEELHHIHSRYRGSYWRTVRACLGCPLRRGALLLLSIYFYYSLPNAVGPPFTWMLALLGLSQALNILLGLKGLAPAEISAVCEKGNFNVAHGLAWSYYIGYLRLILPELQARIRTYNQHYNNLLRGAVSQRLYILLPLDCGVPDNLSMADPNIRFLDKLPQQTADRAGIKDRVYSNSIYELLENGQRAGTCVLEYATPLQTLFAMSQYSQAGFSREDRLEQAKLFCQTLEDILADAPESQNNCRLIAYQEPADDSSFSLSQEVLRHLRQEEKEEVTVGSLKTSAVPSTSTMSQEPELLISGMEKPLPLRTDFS

For the compound `O=C(Nc1c[nH]c2ccc(OCC[C@@H]3C[C@@H]4CN(CC(F)(F)F)C[C@@H]4C3)cc12)C1CC(F)(F)C1` [Compound 588, 3,3-difluoro-N-(5-(2-((3aR,5r,6aS)-2-(2,2,2-trifluoroethyl)octahydrocyclopenta[c]pyrrol-5-yl)ethoxy)-1H-indol-3-yl)cyclobutane-1-carboxamide], the EC50 is 40 to 200 nM.

For `CC(=O)Nc1c[nH]c2ccc(CNS(=O)(=O)c3ccc(C(F)(F)F)cc3)cc12` [Compound 265, N-(5-(((4-(trifluoromethyl)phenyl)sulfonamido)methyl)-1H-indol-3-yl)acetamide], the EC50 lay within 5000 to 100000 nM.

As for `O=C(Nc1c[nH]c2ccc(O[C@H]3C[C@@H](c4ccc(C(F)(F)F)cc4)C3)cc12)C1CC1` [Compound 266, N-(5-(cis-3-(4-(trifluoromethyl)phenyl)cyclobutoxy)-1H-indol-3-yl)cyclopropanecarboxamide], the EC50 was in the range of 40 to 200 nM.

Consider `CC(=O)Nc1c[nH]c2ccc(CC(C)Oc3ccc(C(F)(F)F)cc3)cc12` (centres unmarked) [Compound 287, N-(5-(2-(4-(trifluoromethyl)phenoxy)propyl)-1H-indol-3-yl)acetamide], for which the half-maximal effective concentration (EC50) fell in the range of 1000 to 5000 nM.

For `CC(CCc1ccc(C(F)(F)F)cc1)c1ccc2[nH]cc(NC(=O)C3CCC3)c2c1` (centres unmarked) [Compound 131, N-(5-(4-(4-(trifluoromethyl)phenyl)butan-2-yl)-1H-indol-3-yl)cyclobutanecarboxamide], the 50% effective concentration (EC50) lay in the range of 1000 to 5000 nM.

In the case of `CC(=O)Nc1c[nH]c2ccc(O[C@H]3C[C@@H](c4ccc(C(F)(F)F)nc4)C3)cc12` [Compound 455, N-(5-(cis-3-(6-(trifluoromethyl)pyridin-3-yl)cyclobutoxy)-1H-indol-3-yl)acetamide], the EC50 was in the range of 200 to 1000 nM.

Turning to `CC(=O)Nc1c[nH]c2c(F)cc(OCCC3CCN(CC(F)(F)F)CC3)cc12` [Compound 277, N-(7-fluoro-5-(2-(1-(2,2,2-trifluoroethyl)piperidin-4-yl)ethoxy)-1H-indol-3-yl)acetamide], the concentration giving a half-maximal response (EC50) is 5000 to 100000 nM.

With `COCC(=O)Nc1c[nH]c2ccc(OCCc3ccc(C(F)(F)F)cc3)cc12` [Compound 107, 2-methoxy-N-(5-(4-(trifluoromethyl)phenethoxy)-1H-indol-3-yl)acetamide], the EC50 was in the range of 40 to 200 nM.

Consider `O=C(Nc1c[nH]c2ccc(O[C@H]3C[C@H](c4ccc(C(F)(F)F)nc4)C3)cc12)[C@H]1C[C@H](CO)C1` [Compound 553, trans-3-(hydroxymethyl)-N-(5-(trans-3-(6-(trifluoromethyl)pyridin-3-yl)cyclobutoxy)-1H-indol-3-yl)cyclobutane-1-carboxamide], for which the EC50 was 200 to 1000 nM.

Turning to `CCC(=O)Nc1c[nH]c2ccc(Cc3cc(C)ccc3O)cc12` [Compound 290, N-(5-(2-hydroxy-5-methylbenzyl)-1H-indol-3-yl)propionamide], the half-maximal effective concentration (EC50) lay in the range of 5000 to 100000 nM.

Turning to `O=C(Nc1c[nH]c2ccc(OCCc3ccc(C(F)(F)F)cc3)cc12)C1CC1(F)Cl` (centres unmarked) [Compound 216, 2-chloro-2-fluoro-N-(5-(4-(trifluoromethyl)phenethoxy)-1H-indol-3-yl)cyclopropane-1-carboxamide], the EC50 lay within 200 to 1000 nM.

Consider `O=C(Nc1c[nH]c2ccc(OCCc3ccc(C(F)(F)F)cc3)cc12)C1CC(F)C1` (centres unmarked) [Compound 207, 3-fluoro-N-(5-(4-(trifluoromethyl)phenethoxy)-1H-indol-3-yl)cyclobutane-1-carboxamide], for which the EC50 was in the range of 40 to 200 nM.

With `CC(=O)Nc1c[nH]c2ccc(OCCc3ccc(S(F)(F)(F)(F)F)cc3)cc12` [Compound 169, N-(5-(4-(pentafluoro-16-sulfaneyl)phenethoxy)-1H-indol-3-yl)acetamide], the 50% effective concentration (EC50) lay within 40 to 200 nM.

`CC1(F)CC(C(=O)Nc2c[nH]c3ccc(OCc4ccc(C(F)(F)F)cc4)cc23)C1` (centres unmarked) [Compound 323, 3-fluoro-3-methyl-N-(5-((4-(trifluoromethyl)benzyl)oxy)-1H-indol-3-yl)cyclobutane-1-carboxamide]: the EC50 fell in the range of 200 to 1000 nM.

Values taken from US12503436B2, “Compounds and compositions for treating conditions associated with STING activity” (NOVARTIS PHARMA AG, priority 2021, dated 2025).
